According to patent publication US20120301551A1, “COMPOUNDS AND COMPOSITIONS FOR TREATING NEURONAL DEATH OR NEUROLOGICAL DYSFUNCTION” (Neurotech Pharmaceuticals Co., Ltd., priority 2005, published 2012):
Read-outs that look alike come from different tables or passages of the source.

Experiments:
Fas-FADD interaction = Fas-FADD interaction in serum-deprived neuron-rich cultures (immunoprecipitation, Western blot); format: cell-based, mouse; conditions: deprived of serum for 8 hr
Experimental: (B) Neuron-rich cortical cell cultures (DIV 7) were deprived of serum, alone or with addition of 100 μM zVADfmk, 1 μM 2-hydroxy TTBA, or 5 mM Li^+. Neuronal death was analyzed 24 hr later by counting viable neurons excluding trypan (mean±SEM, n=4). *, Significant difference from the relevant control (serum deprivation alone), p<0.05 using ANOVA and Student-Neuman-Keuls test. (C) Western blot analysis of FADD antibody following immunoprecipitation with Fas antibody in the same samples above.
Additional experiments were performed to examine if targeting both neuronal cell necrosis and apoptosis would result in synergic neuroprotection in […] transgenic mice. […] Neuronal cell apoptosis was induced by serum deprivation in neuron-rich cortical cell cultures as reported, which was prevented by addition of 5 mM Li^+ as well as zVADfmk, a broad spectrum inhibitor of caspases (FIG. 5B). […] Additional experiments were performed to examine if Li^+ would prevent Fas signaling pathway. […] This implies that 2-Hydroxy-TTBA and Li^+ blocks oxidative neuronal cell necrosis and apoptosis, respectively.

G93A transgenic mice = assay: oxidative stress in lumbar spinal motor neurons of G93A transgenic mice (nitrotyrosine, MitoTracker); format: in vivo, mouse; conditions: 30 mg/kg/d oral in diet from 8 weeks of age, at 10 weeks of age
Excerpt: D: Fluorescent photomicrographs of the lumbar ventral section immunolabeled with nitrotyrosine antibody from the wild type (a), or ALS transgenic mice treated with vehicle (b), or 2-hydroxy TTBA for 2 weeks starting from at age of 8 weeks (c). Arrows indicate motor neurons (top panel). Levels of nitrotyrosine were quantitated, mean±SEM (n=15 sections from 3 mice per each condition (bottom panel). p<0.05 using ANOVA and Student-Newman-Keuls test.
E: Same as D except measurement of the fluorescence intensity of oxidized MT red CM-H2XRos. p<0.05 using ANOVA and Student-Newman-Keuls test.
G93A transgenic mice received oral administration of 2-hydroxy-TTBA (30 mg/kg/d) in the diet from 8 weeks of age. The oral administration of 2-Hydroxy-TTBA blocked nitrotyrosine, and mitochondrial free radical increased in the lumbar spinal motor neurons at 10 weeks of age compared to the wild type (FIGS. 5D & 5E). […] Thus, cell necrosis and Fas-mediated apoptosis induced in G93A mice can be prevented by oral administration of 2-hydroxy-TTBA and Li^+.

[1] = superoxide scavenging in test tube; format: biochemical; conditions: read-out: superoxide scavenging effect (IC50 value)
Experimental: In addition, scavenging effects of superoxide and hydroxyl radical in test tube were evaluated. Hydroxyl radical scavenging activities of 0.1 uM, 1 uM and 10 uM of chemical 01 were 13.35%, 33.33% and 71.72%, respectively.

gastric mucous membrane = gastric mucous membrane damage after oral administration; format: in vivo; conditions: 1,000 mg/kg orally administered
Experimental: FIG. 10 is results showing degrees of the gastric mucous membrane damage. Test samples were orally administered in a different dose. […] Aspirin was used as control.
Conventional NSAIDs have side effects causing damages to the gastric mucous membrane. Therefore, it was evaluated whether chemical 01 having anti-inflammatory effect causes the gastric damage or not. 30, 100 or 300 mg/kg of aspirin was orally administered as control.

Tg2576 transgenic mice = assay: Morris water maze in Tg2576 transgenic mice; format: in vivo, mouse; conditions: 25 mg/kg/day for 5 months (9~14 months)
Experimental: 14 month-old Tg2576 transgenic mice were fed chow alone, or containing 25 mg/kg/day of chemical 01, for 5 months (9˜14 months). After administration of 5 months, the cognitive function was analyzed by Morris water maze test. Training was performed 4 times a day (4 trials/day) for 5 days. If mouse stay on the platform for over 10 seconds, it is thought to be a success. After 5 days of experiments, the latency to find the platform was recorded and analyzed for each mouse (mean±SEM, n=2).
14 month-old Tg2576 transgenic mice were fed chow alone (saline only), or containing 25 mg/kg/day of chemical—01, for 5 months (9˜14 month).
The cognitive function was analyzed by Morris water maze test. Mice ware trained to perform a hidden platform task in the Morris water maze. The latency to find the platform was recorded for each mouse.

APP/PS1 mouse = assay: plasma Aβ40/Aβ42 levels in APP/PS1 mouse; format: in vivo
Experimental: Also, treatment with 25 mg/kg/day of chemical 01 for 5 days in 11.5 month-old APP/PS1 mouse caused a significant 44% reduction in SDS-insoluble Aβ42 levels in plasma and a significant 38% reduction in SDS-insoluble Aβ40 levels in plasma compared to APP/PS1 mouse fed with general chow only.
In further, treatment with 25 mg/kg/d of chemical—01 for 7 months (from 3.5 to 10.5 months) caused a significant 42% reduction in SDS-insoluble Aβ40 levels (data not shown). Also, treatment with 25 mg/kg/d of chemical—01 for 5 days in 11.5 months caused a significant 40% reduction in SDS-insoluble Aβ40/Aβ42 levels in plasma (data not shown).

[2] = system: APPswe/PS1deltaE9 double transgenic mice; assay: elevated plus maze in APPswe/PS1deltaE9 double transgenic mice; format: in vivo, mouse; conditions: 25 mg/kg/day for 14.5 months (3~17.5 months)
Experimental: After administration of 14.5 months, Elevated plus maze test was performed to evaluate the behavior improvement like example 10-3-2 (mean±SEM, n=3-5).
17.5 month-old APPswe/PS1deltaE9 double transgenic mice were fed chow alone (saline only), or containing 25 mg/kg/day of chemical—01, for […] (3˜17.5 month).
The anxiety function was analyzed by elevated plus maze test. The time spent in the open arm was recorded in the elevated plus maze.

[3] = system: mesencephalic nerve cell cultures; assay: dopaminergic nerve cell death by LPS in mesencephalic cultures ([3H]DA uptake); format: cell-based; conditions: 5 ng/ml LPS; 0-100 uM; 7 days
Experimental: Mesencephalic nerve cell cultures were pre-treated with 5 ng/ml of LPS for 30 minutes to make a cull culture model of Parkinson's disease, and then 0-100 uM of chemical 01 were added. 7 days after administration, [^3H]DA uptake was evaluated to quantify the death of the nerve cell (mean±SEM, n=4 culture well/each group).

NO = assay: LPS-induced NO in mesencephalic cultures; format: cell-based; conditions: 5 ng/ml LPS; 0-100 uM; 24 hours
Experimental: (§1) Mesencephalic nerve cell cultures were pre-treated with 5 ng/ml of LPS for 30 minutes to make a cull culture model of Parkinson's disease, and then 0-100 uM of chemical 01 were added. The level of NO was evaluated 24 hours after administration of chemical 01, and the level of TNF-a was evaluated 3 hours after administration of chemical 01 (mean±SEM, n=7-12 culture well/each group).

TNF-a = assay: LPS-induced TNF-a in mesencephalic cultures; format: cell-based; conditions: 5 ng/ml LPS; 0-100 uM; 3 hours
Experimental: as §1

[4] = 25 mg/kg/day for 5 days in 11.5 month-old APP/PS1 mouse

O=C(O)c1cc(NCc2c(F)c(F)c(C(F)(F)F)c(F)c2F)ccc1O [2-Hydroxy-TTBA, 2-hydroxy-5-(2,3,5,6-tetrafluoro-4-trifluoromethyl-benzylamino)-benzoic acid]
Fas-FADD interaction, effect in words (Fas-FADD interaction): not | nitrotyrosine and mitochondrial free radical increased in the lumbar spinal motor neurons (G93A transgenic mice): blocked

O=C(O)c1cc(NCCc2ccc(C(F)(F)F)cc2)ccc1O [chemical 01, 2-Hydroxy-5-[2-(4-trifluoromethyl-phenyl)-ethylamino]-benzoic acid]
IC50 ([1]; NADH/PMS system): 26.1 µM | IC50 ([1]; X/XO system): > 100 µM | gastric side effect (damage of the gastric mucous membrane) (gastric mucous membrane): did not cause damage of the gastric mucous membrane | gastric side effect (damage of the gastric mucous membrane) (gastric mucous membrane; listed as Chemical 01): did not cause the gastric side effect | escape latency (latency to find the platform) (Tg2576 transgenic mice): shorter | reduction in SDS-insoluble Aβ40/Aβ42 levels in plasma (APP/PS1 mouse; 25 mg/kg/d for 5 days in 11.5 months): 40% | reduction in SDS-insoluble Aβ40 levels in plasma (APP/PS1 mouse; [4]): 38% | reduction in SDS-insoluble Aβ42 levels in plasma (APP/PS1 mouse; [4]): 44% | time spent in the open arm [2]: decreased the time | time spent in the open arm ([2]; listed as chemical—01): spent less time | dopaminergic nerve cell death caused by LPS [3]: dose-dependent manner | increase of NO caused by LPS (NO): dose-dependent manner | increase of TNF-a caused by LPS (TNF-a): dose-dependent manner
